The values that follow come from patent US12410160B2 (Gilead Sciences, Inc., priority 2021, dated 2025).

pEC50, pIC50: −log10 of the molar value. Where two headings read alike, the source gives them in different places.

Experiment [1] concerns the target human KHK-C (Homo sapiens (Human), UniProt P50053). The experiment can be described thus: KHK Biochemical Assay (IC50), ADP-Glo, KHK-C. The conditions noted are these: average of at least two separate assays. The essentials: (§1)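 His-tagged enzyme expressed in BL21 (DE3), Ni-NTA purified. Compounds, serially diluted 1:3 in DMSO, pre-incubated 30 min with enzyme in 50 mM Hepes pH 7.4, 140 mM KCl, 5 mM MgCl2, 0.01% Triton-X, then ATP and fructose added; 4 h at room temperature. ADP formation read by ADP-Glo luminescence.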
(ADP-Glo turns the ADP formed in a reaction into a luminescent signal.)

Experiment [2] deals with KHK-C expressed in NRK-52E cells (Homo sapiens (Human), UniProt P50053). Description: KHK-C Cell-based Assay (EC50), NRK CTG, fructose-mediated ATP-depletion.
Experiment [3] has as its target human KHK-A (Homo sapiens (Human), UniProt P50053). The experiment can be described thus: KHK Biochemical Assay (IC50), ADP-Glo, KHK-A. To be noted: average of at least two separate assays. A digest of the protocol:
as §1

Sequence of KHK-C expressed in NRK-52E cells (P50053 whole entry): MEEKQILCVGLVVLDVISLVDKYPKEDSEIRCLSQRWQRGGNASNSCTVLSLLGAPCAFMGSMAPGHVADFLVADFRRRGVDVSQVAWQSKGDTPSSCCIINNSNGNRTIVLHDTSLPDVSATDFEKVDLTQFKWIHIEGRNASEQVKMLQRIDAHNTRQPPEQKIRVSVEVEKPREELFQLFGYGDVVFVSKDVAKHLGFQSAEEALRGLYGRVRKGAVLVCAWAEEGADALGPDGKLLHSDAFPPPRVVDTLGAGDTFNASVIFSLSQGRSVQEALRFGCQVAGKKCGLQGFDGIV
Sequence of human KHK-C (P50053 whole entry): as above
Sequence of human KHK-A (P50053 other isoform, or with tags, fused parts or gaps): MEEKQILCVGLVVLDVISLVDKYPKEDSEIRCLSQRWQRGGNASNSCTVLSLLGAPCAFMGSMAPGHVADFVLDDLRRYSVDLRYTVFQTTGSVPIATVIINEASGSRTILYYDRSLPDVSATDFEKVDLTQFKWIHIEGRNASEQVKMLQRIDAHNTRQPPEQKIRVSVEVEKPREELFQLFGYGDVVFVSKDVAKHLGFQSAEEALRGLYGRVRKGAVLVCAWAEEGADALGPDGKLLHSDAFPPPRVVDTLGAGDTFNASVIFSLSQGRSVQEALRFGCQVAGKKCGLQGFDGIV

Usually pIC50 stands for −log10 of the IC50, conventionally taken in molar units. A lower pIC50 goes with a high IC50. One may read the pEC50 as the negative decadic logarithm of the EC50, by convention in mol/L. For `CC(=O)N1C[C@H](C(=O)O)[C@@H](c2cccc(-c3nc(N4CC[C@@H]4C)nc4c3CCC4)c2)C1` (mixture of isomers) [Example 145, (3R,4S)-1-acetyl-4-(3-(2-((S)-2-methylazetidin-1-yl)-6,7-dihydro-5H-cyclopenta[d]pyrimidin-4-yl)phenyl)pyrrolidine-3-carboxylic acid], the negative logarithm of the IC50 (pIC50) in experiment [1] (ADP-Glo) was 6.90; in experiment [3] (ADP-Glo) it was 7.08. The negative-log EC50 (pEC50) in experiment [2] is less than 5.30.

As for `C[C@H]1CCN1c1nc2c(c(-c3ccc4c(c3)[C@]3(C[C@H]3C#N)C(=O)N4)n1)CCC2` (mixture of isomers) [Example 410, rac-(1R,2R)-5′-(2-((S)-2-methylazetidin-1-yl)-6,7-dihydro-5H-cyclopenta[d]pyrimidin-4-yl)-2′-oxospiro[cyclopropane-1,3′-indoline]-2-carbonitrile], the pIC50 was 7.39 in experiment [1] and 7.42 in experiment [3]. For the same compound, the negative logarithm of the EC50 (pEC50) in experiment [2] was 7.32.

As to `C[C@H]1CCN1c1nc2c(c(-c3ccc4c(c3)[C@]3(C[C@@H]3C#N)C(=O)N4)n1)CCC2` (mixture of isomers) [Example 411, rac-(1R,2S)-5′-(2-((S)-2-methylazetidin-1-yl)-6,7-dihydro-5H-cyclopenta[d]pyrimidin-4-yl)-2′-oxospiro[cyclopropane-1,3′-indoline]-2-carbonitrile], the pIC50 in experiment [1] was 6.93; in experiment [3], 7.18. This compound also showed a pEC50 in experiment [2] of 6.32.

As for `C[C@H]1CCN1c1nc2c(c(-c3ccc4c(c3)[C@]3(C[C@H]3C(N)=O)C(=O)N4)n1)CCC2` (mixture of isomers) [Example 412, rac-(1R,2R)-5′-(2-((S)-2-methylazetidin-1-yl)-6,7-dihydro-5H-cyclopenta[d]pyrimidin-4-yl)-2′-oxospiro[cyclopropane-1,3′-indoline]-2-carboxamide], the pIC50 in experiment [1] was 7.53; in experiment [3], 7.24. The same compound showed a pEC50 in experiment [2] of 6.39.

In experiment [1], `C[C@H]1CCN1c1nc2c(c(-c3cnc(N)nc3)n1)CCC2` [Example 732, (S)-5-(2-(2-methylazetidin-1-yl)-6,7-dihydro-5H-cyclopenta[d]pyrimidin-4-yl)pyrimidin-2-amine] had a negative logarithm of the IC50 (pIC50) of 7.06. The compound also gave a negative logarithm of the EC50 (pEC50) in experiment [2] of 6.44.

The compound `C[C@H]1CCN1c1nc2c(c(-c3ccc4sc(N)nc4c3)n1)CCC2` [Example 733, (S)-5-(2-(2-methylazetidin-1-yl)-6,7-dihydro-5H-cyclopenta[d]pyrimidin-4-yl)benzo[d]thiazol-2-amine] had a pIC50 in experiment [1] of 7.30. This compound showed a pEC50 in experiment [2] of 6.91.

In experiment [1], `C[C@H]1CCN1c1nc2c(c(-c3ccc4nc(N)sc4c3)n1)CCC2` [Example 734, (S)-6-(2-(2-methylazetidin-1-yl)-6,7-dihydro-5H-cyclopenta[d]pyrimidin-4-yl)benzo[d]thiazol-2-amine] gave a pIC50 of 7.14. Also, the negative-log EC50 (pEC50) in experiment [2] is 7.04.

`C[C@H]1CCN1c1nc2c(c(-c3ccc4oc(N)nc4c3)n1)CCC2` [Example 736, (S)-5-(2-(2-methylazetidin-1-yl)-6,7-dihydro-5H-cyclopenta[d]pyrimidin-4-yl)benzo[d]oxazol-2-amine] had a pIC50 in experiment [1] of 7.68. In addition, the pEC50 in experiment [2] is 7.46.

Compound `C[C@H]1[C@H](O)CN1c1nc(-c2ccc(C(=O)NCC#N)cc2)c2c(n1)C(F)(F)CC2` [Example 737, N-(cyanomethyl)-4-(7,7-difluoro-2-((2S,3R)-3-hydroxy-2-methylazetidin-1-yl)-6,7-dihydro-5H-cyclopenta[d]pyrimidin-4-yl)benzamide] gave a pIC50 in experiment [1] of 8.01. The compound further had a pEC50 in experiment [2] of 6.62.

For `C[C@H]1[C@H](O)CN1c1nc2c(c(-c3cc4c(c(S(N)(=O)=O)c3)OCC4)n1)CCC2` [Example 739, 5-(2-((2S,3R)-3-hydroxy-2-methylazetidin-1-yl)-6,7-dihydro-5H-cyclopenta[d]pyrimidin-4-yl)-2,3-dihydrobenzofuran-7-sulfonamide], in experiment [1], the negative logarithm of the IC50 (pIC50) is 7.42. Besides, in experiment [2], the negative-log EC50 (pEC50) was 6.67.

With `C[C@@H](NS(C)(=O)=O)c1ccc(-c2nc(N3C[C@@H](O)[C@@H]3C)nc3c2CCC3(F)F)cc1` [Example 740, N-[(1R)-1-[4-[7,7-difluoro-2-[(2S,3R)-3-hydroxy-2-methyl-azetidin-1-yl]-5,6-dihydrocyclopenta[d]pyrimidin-4-yl]phenyl]ethyl]methanesulfonamide], the pIC50 in experiment [1] is 7.39. In experiment [2], this compound gave a negative logarithm of the EC50 (pEC50) of 6.49.

`C[C@@H](NS(C)(=O)=O)c1cccc(-c2nc(N3C[C@@H](O)[C@@H]3C)nc3c2CCC3(F)F)c1` [Example 741, N-[(1R)-1-[3-[7,7-difluoro-2-[(2S,3R)-3-hydroxy-2-methyl-azetidin-1-yl]-5,6-dihydrocyclopenta[d]pyrimidin-4-yl]phenyl]ethyl]methanesulfonamide] gave a negative logarithm of the IC50 (pIC50) in experiment [1] of 7.60. Moreover, the pEC50 in experiment [2] is 6.65.

Turning to `C[C@H]1CCN1c1nc(-c2cc3c(c(S(N)(=O)=O)c2)OCC3)c2c(n1)C(F)(F)CC2` [Example 742, 5-[7,7-difluoro-2-[(2S)-2-methylazetidin-1-yl]-5,6-dihydrocyclopenta[d]pyrimidin-4-yl]-2,3-dihydrobenzofuran-7-sulfonamide], the pIC50 in experiment [1] was 8.89. For the same compound, in experiment [2], the pEC50 is 8.39.

In experiment [1], `C[C@H]1CCN1c1nc2c(c(-c3ccc(C4(NS(C)(=O)=O)CCC4)cc3)n1)CCC2` [Example 743, N-[1-[4-[2-[(2S)-2-methylazetidin-1-yl]-6,7-dihydro-5H-cyclopenta[d]pyrimidin-4-yl]phenyl]cyclobutyl]methanesulfonamide] showed a pIC50 of 5.99. In addition, the pEC50 in experiment [2] was 5.77.

In experiment [1], `C[C@H](NS(C)(=O)=O)c1ccc(-c2nc(N3C[C@@H](O)[C@@H]3C)nc3c2CCC3(F)F)cc1` [Example 744, N-[(1S)-1-[4-[7,7-difluoro-2-[(2S,3R)-3-hydroxy-2-methyl-azetidin-1-yl]-5,6-dihydrocyclopenta[d]pyrimidin-4-yl]phenyl]ethyl]methanesulfonamide] gave a pIC50 of 7.76. In addition, in experiment [2], the negative-log EC50 (pEC50) was 6.85.

In experiment [1], `C[C@H](NS(C)(=O)=O)c1cccc(-c2nc(N3C[C@@H](O)[C@@H]3C)nc3c2CCC3(F)F)c1` [Example 745, N-[(1S)-1-[3-[7,7-difluoro-2-[(2S,3R)-3-hydroxy-2-methyl-azetidin-1-yl]-5,6-dihydrocyclopenta[d]pyrimidin-4-yl]phenyl]ethyl]methanesulfonamide] showed a pIC50 of 7.60. Further, in experiment [2], the pEC50 is 6.79.

`C[C@H]1CCN1c1nc(-c2cc(F)c3c(c2)OCCNC3=O)c2c(n1)C(F)(F)CC2` [Example 747, 8-[7,7-difluoro-2-[(2S)-2-methylazetidin-1-yl]-5,6-dihydrocyclopenta[d]pyrimidin-4-yl]-6-fluoro-3,4-dihydro-2H-1,4-benzoxazepin-5-one]: the pIC50 in experiment [1] was 8.21. The same compound showed a pEC50 in experiment [2] of 7.82.

As to `C[C@@H](NS(C)(=O)=O)c1ccc(-c2nc(N3CC[C@@H]3C)nc3c2CCC3(F)F)cc1` [Example 748, N-[(1R)-1-[4-[7,7-difluoro-2-[(2S)-2-methylazetidin-1-yl]-5,6-dihydrocyclopenta[d]pyrimidin-4-yl]phenyl]ethyl]methanesulfonamide], in experiment [1], the pIC50 was 7.63. The same compound showed a pEC50 in experiment [2] of 7.07.

Compound `C[C@@H](NS(C)(=O)=O)c1cccc(-c2nc(N3CC[C@@H]3C)nc3c2CCC3(F)F)c1` [Example 749, N-[(1R)-1-[3-[7,7-difluoro-2-[(2S)-2-methylazetidin-1-yl]-5,6-dihydrocyclopenta[d]pyrimidin-4-yl]phenyl]ethyl]methanesulfonamide] had a pIC50 in experiment [1] of 7.73. The pEC50 in experiment [2] was 7.16.

Take `C[C@H](NS(C)(=O)=O)c1ccc(-c2nc(N3CC[C@@H]3C)nc3c2CCC3(F)F)cc1` [Example 750, N-[(1S)-1-[4-[7,7-difluoro-2-[(2S)-2-methylazetidin-1-yl]-5,6-dihydrocyclopenta[d]pyrimidin-4-yl]phenyl]ethyl]methanesulfonamide]: the pIC50 in experiment [1] was 8.05. Besides, the negative-log EC50 (pEC50) in experiment [2] is 7.83.

In experiment [1], `C[C@H](NS(C)(=O)=O)c1cccc(-c2nc(N3CC[C@@H]3C)nc3c2CCC3(F)F)c1` [Example 751, N-[(1S)-1-[3-[7,7-difluoro-2-[(2S)-2-methylazetidin-1-yl]-5,6-dihydrocyclopenta[d]pyrimidin-4-yl]phenyl]ethyl]methanesulfonamide] had a negative logarithm of the IC50 (pIC50) of 7.97. Also, the pEC50 in experiment [2] is 7.75.

In experiment [1], `C[C@H]1CCN1c1nc2c(c(-c3ccc(C(N)=O)cn3)n1)CCC2` [Example 752, 6-[2-[(2S)-2-methylazetidin-1-yl]-6,7-dihydro-5H-cyclopenta[d]pyrimidin-4-yl]pyridine-3-carboxamide] had a negative-log IC50 (pIC50) of 7.10. Also, the pEC50 in experiment [2] is 6.65.

In experiment [1], `C[C@H]1CCN1c1nc2c(c(-c3ccc4c(c3)NCCNC4=O)n1)CCC2` [Example 753, 8-[2-[(2S)-2-methylazetidin-1-yl]-6,7-dihydro-5H-cyclopenta[d]pyrimidin-4-yl]-1,2,3,4-tetrahydro-1,4-benzodiazepin-5-one] gave a pIC50 of 7.97. In experiment [2], this compound showed a pEC50 of 7.48.

On to `C[C@H]1CCN1c1nc(-c2ccc3c(c2)OCCC3NS(C)(=O)=O)c2c(n1)C(F)(F)CC2` (stereo partly drawn) [Example 759, N-[7-[7,7-difluoro-2-[(2S)-2-methylazetidin-1-yl]-5,6-dihydrocyclopenta[d]pyrimidin-4-yl]chroman-4-yl]methanesulfonamide], for which the pIC50 in experiment [1] is 8.64. Further, in experiment [2], the pEC50 is 8.16.

For “(1S)-1-[4-[7,7-difluoro-2-[(2S)-2-methylazetidin-1-yl]-5,6-dihydrocyclopenta[d]pyrimidin-4-yl]phenyl]-2,2-difluoro-ethanamine [Example 652]”, the negative logarithm of the IC50 (pIC50) in experiment [1] was 7.63. For the same compound, the negative-log EC50 (pEC50) in experiment [2] (read-out: NRK CTG EC50, NRK-52E cells, Cell-Titer Glo, 25 mM fructose) is 6.71.
